# Results reported in patent US6693104B2, “Theobromine with an anti-carcinogenic activity” (Lotte Confectionery Co., Ltd., priority 2001, dated 2004).
# Columns and labels:
# [1] = system: WB-F344 cells; assay: Scrape Loading/Dye Transfer (SL/DT) assay: suppression of gap junction channel by H2O2; assay type: cell-based; conditions: 200 μM theobromine, 400 μM H2O2, WB-F344 rat liver epithelial cells, Lucifer Yellow, FIG. 1
# Method: The effect of theobromine on the suppression of gap junction channel induced by H2O2 was examined according to a known method of Scrape Loading/Dye Transfer (SL/DT) assay (Upham, B. L., Kang, K. S., Cho, H. Y., & Trosko, J. E., Carcinogenesis, 18: 37-42, 1997), as further explained below.
# WB-F344 cells were used as a liver cell in order to examine its inhibitory effect on the suppression of gap junction channel in liver cells. The above liver cells were cultured in a MEM-media with 10% FBS, added with 100 IU/mL of penicillin and 100 μg/mL of streptomycin, in an incubator at 37° C. with 5% CO2 (Forma Scientific Co., Marjetta, Ohio, USA). The media compositions used in the above culture were purchased from GIBCO BRL (Grand Island, N.Y., USA). Thus cultured liver cells in media were transferred to each 2 mL petri dish (1×10^5 cells/mL) and cultured for 44 hr. Then the above culturing media were replaced with fresh media with various concentrations of theobromine while the control group was also replaced with fresh media only. Four hours after that, the media were treated theobromine with various concentrations 400 μM by H2O2 together while the control group was replaced with fresh medial. […]
# [2] = system: HepG2; assay: 3H thymidine uptake assay, liver cancer cells; assay type: cell-based; conditions: HepG2, various concentrations, 72 hr, FIG. 3
# Method: The inhibitory effect of theobromine on the proliferation of liver cancer cells was examined by using ^3H thymidine uptake assay (Marshall, E. S. et al. European J. Cancer, 30A: 1370-1376, 1994). HepG2 was used as liver cancer cells. The HepG2 liver cancer cells were cultured in RPMI-1640 media with 10% FBS, 100 IU/mL of penicillin and 100 μg/mL of streptomycin, in a 37° C. incubator with 5% CO2 (Forma Scientific Co., Marjetta, Ohio, USA). The media were purchased from GIBCO BRL (Grand Island, N.Y., USA). Thus cultured HepG2 liver cancer cells were transferred to 96 well plates, each of which contains 2×10^4 cells and were added with various concentrations of theobromine obtained from the reference examples 1-3 and were cultured for 72 hr. Six hours prior to recovery of the above cells, each well was added with 1 μCi of ^3H-Thymidine (Sigma, St. Louis, Mo., USA). After completion of the culture, the cells were recovered into a glass fiber filter (Brandel Inc., Gaithersburg, Mass., USA) by using a recovery instrument (Cambridge Scientific Inc., Cambridge, Mass., USA). The incorporation of ^3H-thymidine of recovered cells after combining with 3 mL of scintillation cocktail solution (Wallac, Turku, Finland) was examined in a liquid scintillation counter (Wallac, Turku, Finland). The whole process was repeated three times according to the above method.
# [3] = system: SNU1; assay: 3H thymidine uptake assay, gastric cancer cells; assay type: cell-based; conditions: SNU1, various concentrations, FIG. 4
# [4] = assay type: in vivo; conditions: 0.5 g/kg, in DMSO diluted in water, observed for 7 days
# Method: The toxicity of theobromine of the present invention was performed as follows.
# [5] = system: SNUC2A; assay: 3H thymidine uptake assay, colon cancer cells; assay type: cell-based; conditions: various concentrations, FIG. 5
structure (smiles),measurement,setting,value
Cn1cnc2c1c(=O)[nH]c(=O)n2C [theobromine],inhibition of the suppression of gap junction channel by H2O2,[1],completely inhibit the suppression of gap junction channel
same,inhibition rate of DNA synthesis of liver cancer cells,[2],increased in a dose-dependent manner
same,inhibition rate of DNA synthesis of gastric cancer cells,[3],increased in a dose-dependent manner
same,survival,[4],all mice survived
same,inhibition rate of DNA synthesis of colon cancer cells,[5],increased in a dose-dependent manner
